In patent US20040058948A1, “Mappicine analogs, methods of inhibiting retroviral reverse transcriptase and methods of treating retroviruses” (priority 2002, published 2004):
Values joined by “and” are separate entries in the source; they are usually repeats but may differ in a detail not shown here. Equal values may be shown once.

Legend:
[1] = target: T1, RNA-dependent DNA polymerase activity of HIV reverse transcriptase (Human immunodeficiency virus type 1 group M subtype B, UniProt P04585); assay: RNA-dependent DNA polymerase activity assay of HIV reverse transcriptase; format: biochemical, HIV-1; settings: 10 μM inhibitor concentration, activity with analog / without analog x 100
T1 construct: made in house
Description: In separate, representative assays, mappicine analogs were tested for their ability to inhibit the RNA-dependent DNA polymerase activity of HIV reverse transcriptase and for their ability to inhibit the RNase H activity of HIV reverse transcriptase. The assay for RNA-dependent DNA polymerase activity is discussed in Borkow, G. et al., “Inhibition of the Ribonuclease H and DNA Polymerase Activities of HIV-1 Reverse Transcriptase by N-(4-tert-Butylbenzoyl)-2-hydroxy-1-naphthaldehyde Hydrazone,” Biochemistry 1997, 36, 3179-3185, a copy of which is attached hereto, and the disclosure of which is incorporated herein by reference. Assays were carried out in the absence and in the presence of mappicine analogs (10 μM final concentration). The results are reported as % residual activity, which is the RNA-dependent DNA polymerase activity of the enzyme in the presence of the mappicine analog divided by the RNA-dependent activity of the enzyme in the absence of the mappicine analog, multiplied by 100.

[2] = target: RNase H activity of HIV reverse transcriptase (Human immunodeficiency virus type 1 group M subtype B, UniProt P04585); assay: Fluorescence (FRET)-based RNase H activity assay of HIV reverse transcriptase; format: biochemical, HIV-1; design: final concentration of 2.5 nM of the p51/p66 RT heterodimer in the assay; made in house; settings: 10 μM inhibitor concentration, activity with analog / without analog x 100
Description: Recently, a fluorescence-based assay to perform preliminary screens in search of HIV RNase H inhibitors has been developed. The assay, which is carried out in 96-well microplates and is adaptable to robotics, is the first high-throughput screen for RNase H and is described in further detail in the Experimental section. HIV-1 RT and human RNase H were cloned, and thus comparative analysis of inhibitor action could be conducted simultaneously.
The assay for RNase H activity of HIV reverse transcriptase was the fluorescence-based assay described in detail in the Experimental section and discussed in U.S. Provisional Patent Application Serial No. 60/318,359. Assays were carried out in the absence and in the presence of mappicine analogs (10 μM final concentration). The results are reported as % residual activity, which is the RNase H activity of the enzyme in the presence of the mappicine analog divided by the RNase H activity of the enzyme in the absence of the mappicine analog, multiplied by 100. Alternatively, the results are reported as % inhibition, which is calculated as the ratio of the RNase H activity of the enzyme in the presence of the mappicine analog to the enzyme activity in the absence of the mappicine analog, multiplied by 100, and then subtracting this number from 100.
Assay for Ribonuclease H Activity Based on Fluorescence Resonance Energy Transfer (FRET)
Preparation of the Fluorophore-RNA/Quencher-DNA Hybrid Duplex Substrate.
The RNA/DNA hybrid duplex substrate for use in the assay comprises an RNA oligonucleotide of sequence 5′-GAU CUG AGC CUG GGA GCU-3′, modified at the 3′-end with Aminolink-2 and derivatized with fluorescein isothiocyanate, to provide a modified RNA oligonucleotide of the sequence 5′-GAU CUG AGC CUG GGA GCU-fluorescein-3′, annealed to a complementary DNA oligonucleotide of the sequence 5′-AGC TCC CAG GCT CAG ATC-3′ modified at the 5′-end with Aminolink-2 and derivatized with the FRET acceptor DABCYL succinimidyl ester, to provide a modified DNA oligonucleotide of the sequence 5′-DABCYL-AGC TCC CAG GCT CAG ATC-3′.
To prepare the 3′-fluorescein-RNA/5′-DABCYL-DNA hybrid duplex substrate, a known amount of 3′-fluorescein-RNA was dissolved in 20 mM Tris buffer (pH 8.0, 37° C.) to provide a final concentration of 5 μM. Two equivalents of the 5′-DABCYL-DNA oligonucleotide were added, and the mixture was heated to 90° C. for 5 min and cooled slowly to room temperature to allow duplex formation. The positioning of the fluorescein donor at the 3′-end of the RNA oligonucleotide and the DABCYL acceptor at the 5′-end of the DNA oligonucleotide provides a very close proximity of the donor and acceptor that results in a very intense quenching of the fluorescein emission in the intact RNA/DNA hybrid duplex substrate due to the spectral overlap of the fluorescence emission of fluorescein with the absorption spectrum of DABCYL. In addition, DABCYL is non-fluorescent, and thus cannot contribute any light emission. Both of these factors result in a very low background and provide a high signal-to-noise in the assay measurements. The ratio of the donor fluorescence in the absence and in the presence of its quencher is approximately fifteen-fold.
Microplate Assay Protocol for the Measurement of RNase H Activity Using the RNA/DNA Hybrid Duplex Substrate.
Reaction assay mixtures contained 5 μl of a stock solution of 2.5 μM RNA/DNA hybrid duplex substrate added to 85 μl of assay buffer (50 mM Tris, pH 8.0, 37° C., containing 60 mM KCl and 2.5 mM MgCl2), prepared in the wells of a 96-well fluorescence microtiter plate, and warmed to 37° C. using the temperature control of the SpectraMax Gemini XS microplate spectrofluorometer (Molecular Devices). Reactions were started by the addition of 5 μl of a solution of recombinant HIV-1 reverse transcriptase (usually providing a final concentration of 2.5 nM of the p51/p66 RT heterodimer in the assay), and mixing using the automatic mixing function of the microplate spectrofluorometer. […]

SMILES | Residual activity (%) Polymerase [1] [%] | Residual activity (%) RNase H [2] [%] | Residual activity (%) Polymerase ([1]; 10 µM) | Residual activity (%) RNase H ([2]; 10 µM)
Cc1c(C(=O)CCC2CCCCC2)cc2n(c1=O)Cc1c-2nc2ccccc2c1[Si](C)(C)C(C)(C)C [4Aδκ] | 39 | 102 | – | –
CCC(=O)c1cc2n(c(=O)c1C)Cc1c-2nc2ccc(F)cc2c1[Si](C)(C)C(C)(C)C [4Bακ] | 42 | 77 | – | –
Cc1c(C(=O)C(C)(C)C)cc2n(c1=O)Cc1c-2nc2ccc(F)cc2c1[Si](C)(C)C(C)(C)C [4Bβκ] | 82 | 79 | – | –
Cc1c(C(O)CCC2CCCCC2)cc2n(c1=O)Cc1c-2nc2ccc(F)cc2c1[Si](C)(C)C(C)(C)C (stereo not shown) [4Bδ] | 44 | 90 | – | –
Cc1c(C(=O)CCC2CCCCC2)cc2n(c1=O)Cc1c-2nc2ccc(F)cc2c1[Si](C)(C)C(C)(C)C [4Bδκ] | 56 | 96 | – | –
Cc1c(C(O)Cc2ccccc2)cc2n(c1=O)Cc1c-2nc2ccc(F)cc2c1[Si](C)(C)C(C)(C)C (stereo not shown) [4Bε] | 61 | 89 | – | –
CCC(O)c1cc2n(c(=O)c1C)Cc1c-2nc2ccc(C)cc2c1[Si](C)(C)C(C)(C)C (stereo not shown) [4Cα] | 94 | 91 | – | –
CCC(=O)c1cc2n(c(=O)c1C)Cc1c-2nc2ccc(C)cc2c1[Si](C)(C)C(C)(C)C [4Cακ] | 52 | 90 | – | –
Cc1ccc2nc3c(c([Si](C)(C)C(C)(C)C)c2c1)Cn1c-3cc(C(O)C(C)(C)C)c(C)c1=O (stereo not shown) [4Cβ] | 67 | 94 | – | –
Cc1ccc2nc3c(c([Si](C)(C)C(C)(C)C)c2c1)Cn1c-3cc(C(=O)C(C)(C)C)c(C)c1=O [4Cβκ] | 67 | 65 | – | –
Cc1ccc2nc3c(c([Si](C)(C)C(C)(C)C)c2c1)Cn1c-3cc(C(=O)CCC2CCCCC2)c(C)c1=O [4Cδκ] | 52 | 96 | – | –
CCC(O)c1cc2n(c(=O)c1C)Cc1c-2nc2ccc(OC)cc2c1[Si](C)(C)C(C)(C)C (stereo not shown) [4Dα] | 77 | 79 | – | –
CCC(=O)c1cc2n(c(=O)c1C)Cc1c-2nc2ccc(OC)cc2c1[Si](C)(C)C(C)(C)C [4Dακ] | 80 | 77 | – | –
COc1ccc2nc3c(c([Si](C)(C)C(C)(C)C)c2c1)Cn1c-3cc(C(=O)CCC2CCCCC2)c(C)c1=O [4Dδκ] | – | – | 50% and 64% | 83% and 97%
CCC(O)c1cc2n(c(=O)c1C)Cc1c-2nc2ccccc2c1[Si](C)(C)C (stereo not shown) [5Aα] | – | – | 32% | 93%
CCC(=O)c1cc2n(c(=O)c1C)Cc1c-2nc2ccccc2c1[Si](C)(C)C [5Aακ] | 91 | 103 | – | –

SMILES | Residual activity (%) Polymerase [1] [%] | Residual activity (%) RNase H [2] [%] | Residual activity (%) Polymerase ([1]; 10 µM) | Residual activity (%) RNase H ([2]; 10 µM)
Cc1c(C(=O)C(C)(C)C)cc2n(c1=O)Cc1c-2nc2ccccc2c1[Si](C)(C)C [5Aβκ] | 47 | 97 | – | –
Cc1c(C(=O)CCC2CCCCC2)cc2n(c1=O)Cc1c-2nc2ccccc2c1[Si](C)(C)C [5Aδκ] | 90 | 75 | – | –
CCC(O)c1cc2n(c(=O)c1C)Cc1c-2nc2ccc(F)cc2c1[Si](C)(C)C (stereo not shown) [5Bα] | 82 | 105 | – | –
CCC(=O)c1cc2n(c(=O)c1C)Cc1c-2nc2ccc(F)cc2c1[Si](C)(C)C [5Bακ] | 74 | 89 | – | –
Cc1c(C(=O)C(C)(C)C)cc2n(c1=O)Cc1c-2nc2ccc(F)cc2c1[Si](C)(C)C [5Bβκ] | 63 | 100 | – | –
Cc1c(C(=O)CCC2CCCCC2)cc2n(c1=O)Cc1c-2nc2ccc(F)cc2c1[Si](C)(C)C [5Bδκ] | 46 | 78 | – | –
Cc1c(C(O)Cc2ccccc2)cc2n(c1=O)Cc1c-2nc2ccc(F)cc2c1[Si](C)(C)C (stereo not shown) [5Bε] | 49 | 88 | – | –
CCC(O)c1cc2n(c(=O)c1C)Cc1c-2nc2ccc(C)cc2c1[Si](C)(C)C (stereo not shown) [5Cα] | 68 | 62 | – | –
CCC(=O)c1cc2n(c(=O)c1C)Cc1c-2nc2ccc(C)cc2c1[Si](C)(C)C [5Cακ] | 93 | 109 | – | –
Cc1ccc2nc3c(c([Si](C)(C)C)c2c1)Cn1c-3cc(C(=O)C(C)(C)C)c(C)c1=O [5Cβκ] | 76 | 92 | – | –
Cc1ccc2nc3c(c([Si](C)(C)C)c2c1)Cn1c-3cc(C(=O)CCC2CCCCC2)c(C)c1=O [5Cδκ] | 59 | 99 | – | –
CCC(=O)c1cc2n(c(=O)c1C)Cc1c-2nc2ccc(OC)cc2c1[Si](C)(C)C [5Dακ] | 50 | 86 | – | –
COc1ccc2nc3c(c([Si](C)(C)C)c2c1)Cn1c-3cc(C(O)C(C)(C)C)c(C)c1=O (stereo not shown) [5Dβ] | 76 | 102 | – | –
COc1ccc2nc3c(c([Si](C)(C)C)c2c1)Cn1c-3cc(C(=O)C(C)(C)C)c(C)c1=O [5Dβκ] | 64 | 86 | – | –
COc1ccc2nc3c(c([Si](C)(C)C)c2c1)Cn1c-3cc(C(O)CCC2CCCCC2)c(C)c1=O (stereo not shown) [5Dδ] | 57 | 96 | – | –
COc1ccc2nc3c(c([Si](C)(C)C)c2c1)Cn1c-3cc(C(=O)CCC2CCCCC2)c(C)c1=O [5Dδκ] | 40 | 92 | – | –
